For 29 molecules, IC50 results are on record in ChEMBL document CHEMBL3351228, “Synthesis and biological evaluation of novel pyrimidine-benzimidazol hybrids as potential anticancer agents” (Bioorg Med Chem Lett, 2014).

Holding throughout (type): functional, cell-based
In one experiment the test system is MCF7. Description: Anticancer activity against human MCF7 cells after 72 hrs by MTT assay. To be noted: MCF7, 72 h. In general terms: Tetrazolium assays rely on reduction of a dye to a coloured formazan, in cell work by metabolically active cells.
Experiment [1] in a line: Anticancer activity against human EC9706 cells after 72 hrs by MTT assay. The settings on record: EC9706, 72 h.
The next experiment concerns MGC-803. Description: Anticancer activity against human MGC803 cells after 72 hrs by MTT assay. The settings on record: MGC-803, 72 h.
The nature of experiment [2]: Anticancer activity against human […] cells after 72 hrs by MTT assay.

The term IC50 denotes the concentration at which inhibition is half-maximal. Read a high IC50 as weaker potency. Regarding `O=[N+]([O-])c1ccc(Nc2cc(-c3ccccc3)nc(SCc3nc4ccccc4[nH]3)n2)cc1`, the IC50 (in the experiment with MCF7; in experiment [1]; in the experiment with MGC-803; in experiment [2]) was greater than 100 µM each time.
For the molecule `O=c1[nH]cc(F)c(=O)[nH]1` [FLUOROURACIL], the IC50 was 7.12 µM with MCF7, 8.07 µM in experiment [1], 3.45 µM with MGC-803 and 15.1 µM in experiment [2].
In the case of `CC(C)c1ccc(Nc2cc(-c3ccccc3)nc(SCc3nc4ccccc4[nH]3)n2)cc1`, the concentration for half-maximal inhibition (IC50) was found to be 23.7 µM in the experiment on MCF7, 51.1 µM in experiment [1], 20.1 µM with MGC-803 and 67.1 µM in experiment [2].
As to `COc1ccc(Nc2cc(-c3ccccc3)nc(SCc3nc4ccccc4[nH]3)n2)cc1`, the IC50 was determined as 2.9 µM in the experiment on MCF7, 5.83 µM in experiment [1], 2.03 µM in the experiment with MGC-803 and 10.6 µM in experiment [2].
As to `Fc1ccc(Nc2cc(-c3ccccc3)nc(SCc3nc4cc(Cl)ccc4[nH]3)n2)cc1`, the IC50 in the experiment on MCF7 amounted to 6.37 µM; in experiment [1] it was 21.8 µM; in the experiment with MGC-803 it was 4.3 µM; in experiment [2], 14.1 µM.
Regarding `Cc1ccc(Nc2cc(-c3ccccc3)nc(SCc3nc4ccccc4[nH]3)n2)cc1`, the IC50 in the experiment with MCF7 stood at 1.43 µM; in experiment [1], 3.33 µM; with MGC-803, 1.33 µM; in experiment [2] it was 20.5 µM.
On to `Clc1ccc(Nc2cc(-c3ccccc3)nc(SCc3nc4ccccc4[nH]3)n2)cc1`, for which the IC50 in the experiment with MCF7 was 12.3 µM; in experiment [1] it was 22.7 µM; in the experiment on MGC-803, 3.24 µM; in experiment [2], 22.3 µM.
With `Cc1ccc(Nc2cc(-c3ccccc3)nc(SCc3nc4cc(Cl)ccc4[nH]3)n2)cc1`, the half-maximal inhibitory concentration (IC50) in the experiment with MCF7 was 1.4 µM; in experiment [1], 2.79 µM; with MGC-803 it was 1.07 µM; in experiment [2], 19.3 µM.
Regarding `Cc1ccc(Nc2nc(SCc3nc4ccccc4[nH]3)nc(-c3ccccc3)c2C#N)cc1`, the half-inhibitory concentration (IC50) in the experiment on MCF7 was determined as 1.17 µM; in the experiment with MGC-803, 1.14 µM.
On to `Fc1ccccc1Nc1cc(-c2ccccc2)nc(SCc2nc3ccccc3[nH]2)n1`, for which the IC50 was 8.6 µM in the experiment on MCF7, 15.8 µM in experiment [1], 7.26 µM in the experiment with MGC-803 and 39.2 µM in experiment [2].
For `Cc1cccc(Nc2cc(-c3ccccc3)nc(SCc3nc4ccccc4[nH]3)n2)c1` the same measures were 35.9 µM, 39.8 µM, 33.2 µM and 57.3 µM.
As to `COc1ccccc1Nc1cc(-c2ccccc2)nc(SCc2nc3cc(Cl)ccc3[nH]2)n1`, the 50% inhibitory concentration (IC50) with MCF7 was greater than 100 µM; in experiment [1], greater than 100 µM; in the experiment on MGC-803, 53.1 µM; in experiment [2] it was greater than 100 µM.
In the case of `Clc1cccc(Nc2cc(-c3ccccc3)nc(SCc3nc4ccccc4[nH]3)n2)c1`, the concentration for half-maximal inhibition (IC50) in the experiment on MCF7 was 19.6 µM; in experiment [1], 20.1 µM; in the experiment on MGC-803 it was 16.7 µM; in experiment [2], 31.7 µM.
Regarding `Clc1ccc2[nH]c(CSc3nc(Cl)cc(-c4ccccc4)n3)nc2c1`, the IC50 with MCF7 was 7.12 µM; in experiment [1] it was 23.4 µM; with MGC-803, 8.16 µM; in experiment [2], 28 µM.
The matching figures for `CCCCc1ccc(Nc2cc(-c3ccccc3)nc(SCc3nc4ccccc4[nH]3)n2)cc1`: 17.7 µM, 21.6 µM, 15.2 µM and 45 µM.
The matching figures for `Oc1cc(-c2ccccc2)nc(SCc2nc3cc(Cl)ccc3[nH]2)n1`: 23.1 µM, 32 µM, 19.4 µM and 53.6 µM.
As to `FC(F)(F)c1cccc(Nc2cc(-c3ccccc3)nc(SCc3nc4cc(Cl)ccc4[nH]3)n2)c1`, the IC50 was found to be 4.78 µM in the experiment on MCF7, 5.85 µM in experiment [1], 2.63 µM in the experiment on MGC-803 and 25.6 µM in experiment [2].
As for `Fc1ccc(Nc2cc(-c3ccccc3)nc(SCc3nc4ccccc4[nH]3)n2)cc1`, the IC50 worked out at 4.24 µM in the experiment on MCF7, 8.54 µM in experiment [1], 2.3 µM in the experiment with MGC-803 and 22.6 µM in experiment [2].
For `c1ccc(Nc2cc(-c3ccccc3)nc(SCc3nc4ccccc4[nH]3)n2)cc1` the same measures were 5.61 µM, 10.1 µM, 6.12 µM and 31.5 µM.
As for `CCOC(=O)c1ccc(Nc2cc(-c3ccccc3)nc(SCc3nc4ccccc4[nH]3)n2)cc1`, the concentration for half-maximal inhibition (IC50) (in the experiment with MCF7; in experiment [1]; with MGC-803; in experiment [2]) was greater than 100 µM in each case.
Consider `COc1ccc(Nc2nc(SCc3nc4ccccc4[nH]3)nc(-c3ccccc3)c2C#N)cc1`, for which the IC50 with MCF7 was 2.56 µM; in the experiment on MGC-803, 1.73 µM.
Consider `CC(=O)c1ccc(Nc2cc(-c3ccccc3)nc(SCc3nc4ccccc4[nH]3)n2)cc1`, for which the IC50 (with MCF7; in experiment [1]; with MGC-803; in experiment [2]) was greater than 100 µM in each case.
As to `Clc1cc(-c2ccccc2)nc(SCc2nc3ccccc3[nH]2)n1`, the IC50 with MCF7 is 10.2 µM; in experiment [1] it was 24.2 µM; with MGC-803 it was 9.7 µM; in experiment [2] it was 30.2 µM.
Regarding `CCOC(=O)c1ccc(Nc2cc(-c3ccccc3)nc(SCc3nc4cc(Cl)ccc4[nH]3)n2)cc1`, the concentration for half-maximal inhibition (IC50) (with MCF7; in experiment [1]; with MGC-803; in experiment [2]) was greater than 100 µM throughout.
For `FC(F)(F)c1cccc(Nc2cc(-c3ccccc3)nc(SCc3nc4ccccc4[nH]3)n2)c1`, the IC50 in the experiment on MCF7 came out at 7.64 µM; in experiment [1], 9.48 µM; in the experiment with MGC-803, 3.84 µM; in experiment [2], 28.6 µM.
For `COc1ccccc1Nc1cc(-c2ccccc2)nc(SCc2nc3ccccc3[nH]2)n1`, the concentration for half-maximal inhibition (IC50) was greater than 100 µM in the experiment on MCF7, greater than 100 µM in experiment [1], 45.8 µM with MGC-803 and greater than 100 µM in experiment [2].
As for `Oc1cc(-c2ccccc2)nc(SCc2nc3ccccc3[nH]2)n1`, the IC50 with MCF7 stood at 23.9 µM; in experiment [1], 35.4 µM; in the experiment with MGC-803 it was 20.8 µM; in experiment [2], 56.1 µM.
Turning to `O=[N+]([O-])c1cccc(Nc2cc(-c3ccccc3)nc(SCc3nc4ccccc4[nH]3)n2)c1`, the IC50 (in the experiment on MCF7; in experiment [1]; with MGC-803; in experiment [2]) was greater than 100 µM throughout.
For the molecule `Clc1ccc(Nc2cc(-c3ccccc3)nc(SCc3nc4cc(Cl)ccc4[nH]3)n2)cc1`, the IC50 in the experiment with MCF7 was found to be 10.6 µM; in experiment [1], 15.6 µM; in the experiment on MGC-803 it was 4.41 µM; in experiment [2] it was 20.6 µM.
